In BindingDB's records for doi:10.1016/j.bmcl.2019.05.048 (Bristol-Myers Squibb, 2019) one finds IC50 data, which are given here for one compound.

For the assay, the target named is Hepatic lipase (Mouse). Briefly: Inhibition of hepatic lipase in endothelial lipase knock-out mouse plasma using D31-POPC-HDL as substrate incubated for 2 hrs by LC/MS analysis.

Each structure is given as a SMILES string.

The term IC50 denotes the concentration that gives 50% inhibition. A lower IC50 goes with higher potency. The compound `COCCS(=O)(=O)C(C(=O)NCC(=O)NC1CC1)c1nc2ccc(-c3ccc(F)nc3)cc2s1` (stereo unspecified) came in with an IC50 of 26 µM.
